The text below walks through data of patent publication US4439426A, “Semisynthetic macrolidic antibiotics, intermediate compounds for their preparation and related pharmaceutical compositions containing them” (priority 1981, dated 1984).

Converted amounts (≈) assume the structure as drawn. “And” between values parts separate entries of the source, which are not always exact repeats. Identical values can stand only once.

The test system of data set [1] is Streptococcus pyogenes ATCC 8668 LRP 34. Description: Minimum bactericidal concentration (MBC). In kind it is cell-based. The text has this:
(§1) the bacterial power, expressed as the minimum bactericidal power (MBC) against some Gram positive aerobic stocks (table 5).

The subject of data set [2] is Streptococcus pneumoniae ATCC 6303 LRP 35. Kind of data set: Minimum bactericidal concentration (MBC). It counts as cell-based.
Excerpt: as §1

The test system of data set [3] is Staphylococcus aureus ATCC 6538 P LRP 39. Description: Minimum bactericidal concentration (MBC). It counts as cell-based.
Excerpt: as §1

A short description of data set [4]: Serum concentrations in the rat after oral administration. It counts as in vivo. Particulars: 100 mg/kg per os. As to the method:
administration of 100 mg/kg per os. The values, at the
several sampling times, correspond to mcg of product per ml of serum*.

Take `CC[C@H]1OC(=O)[C@H](C)[C@@H](O[C@H]2C[C@@](C)(OC)[C@@H](O)[C@H](C)O2)[C@H](C)[C@@H](O[C@@H]2O[C@H](C)C[C@H](N(C)C)[C@H]2O)[C@](C)(O)C[C@](C)(F)C(=O)[C@H](C)[C@@H](O)[C@]1(C)O` [P-80206, (8S)-8-fluoroerythromycin A]: the MBC/MIC in data set [1] came out at 8; in data set [2] it was 4; in data set [3] it was 16. Moreover, the MBC in data set [1] (Streptococcus pyogenes, ATCC8668, read-out: Minimum bactericidal concentration (MBC)) was 0.78 µg/mL (≈ 1.04 µM); in data set [2] (Streptococcus pneumoniae, ATCC6303, read-out: Minimum bactericidal concentration (MBC)) it was 0.195 µg/mL (≈ 0.259 µM); in data set [3] (Staphylococcus aureus, ATCC6538, read-out: Minimum bactericidal concentration (MBC)), 3.12 µg/mL (≈ 4.15 µM). For the same compound, the “Serum concentration, individual rat” value in data set [4] (0.5 hours, 30 min) is 0.078 mcg of product per ml of serum and 0.198 mcg of product per ml of serum and 0.630 mcg of product per ml of serum and 0.487 mcg of product per ml of serum and 1.105 mcg of product per ml of serum and 1.333 mcg of product per ml of serum; in data set [4] (1 hour, 60 min) it was 8.505 mcg of product per ml of serum and 0.880 mcg of product per ml of serum and 1.273 mcg of product per ml of serum and 1.251 mcg of product per ml of serum and 1.714 mcg of product per ml of serum and 0.531 mcg of product per ml of serum; in data set [4] (2 hours, 120 min) it was 3.712 mcg of product per ml of serum and 6.516 mcg of product per ml of serum and 3.510 mcg of product per ml of serum and 6.907 mcg of product per ml of serum and 6.601 mcg of product per ml of serum and 7.195 mcg of product per ml of serum; in data set [4] (4 hours, 240 min), 1.792 mcg of product per ml of serum and 2.134 mcg of product per ml of serum and 1.270 mcg of product per ml of serum and 2.817 mcg of product per ml of serum and 2.362 mcg of product per ml of serum and 2.115 mcg of product per ml of serum; in data set [4] (6 hours, 360 min), 0.867 mcg of product per ml of serum and 0.393 mcg of product per ml of serum and 1.192 mcg of product per ml of serum and 1.792 mcg of product per ml of serum and 1.620 mcg of product per ml of serum and 1.147 mcg of product per ml of serum. Besides, the concentration at 0.5 h in data set [4] (rat, in vivo, po, 100 mg/kg, 0.5 hours, read-out: Serum concentration, average) is 638 ng/mL. Further, the concentration at 1 h in data set [4] (rat, in vivo, po, 100 mg/kg, 1 hour, read-out: Serum concentration, average) worked out at 2360 ng/mL. The compound further yielded a concentration at 2 h in data set [4] (rat, in vivo, po, 100 mg/kg, 2 hours) of 5740 ng/mL. The concentration at 4 h in data set [4] (rat, in vivo, po, 100 mg/kg, 4 hours, read-out: Serum concentration, average) was 2080 ng/mL. Also, the concentration at 6 h in data set [4] (rat, in vivo, po, 100 mg/kg, 6 hours, read-out: Serum concentration, average) was found to be 1170 ng/mL.
